Experiments:
[1] = molecular target: Type-I α-glucosidase (Baker Yeast) (Saccharomyces cerevisiae, UniProt P53341); experiment: In vitro α-glucosidase inhibition assay (PNPG); format: biochemical; settings: read-out: % α-Glucosidase Inhibition Mean ± SEM
Source text: Chemicals such as Tween-80 (Scharlau-chem., Barcelona, Spain), normal saline solution (Utsoka Pharma, Las Bela Baluchistan, Pakistan), lipid profile tests kits (Human, Hamburg, Germany), renal profile tests kits, and antioxidant enzymes kits (Biomed: Germany; diagnostic) were used in in vivo study. Mueller Hinton (MH) agar and broth (Merck, Modderfontein, South Africa) were used to culture the bacterial strains. Various solvents such as methanol, n-hexane, ethyl acetate, and chloroform (Merck, Darmstadt, Germany) were also used in this study.
The α-glucosidase inhibition potential of morin was determined according to the reported method with minor changes. The reaction mixture was prepared by taking 100 μL α-glucosidase (0.5 unit/mL), 600 μL phosphate buffer (0.1 M; pH 6.9), and 50 μL of isolated compounds (morin, phloroglucinol, and 1-hexyl benzene) with serial dilutions of 31.05, 62.5, 125, 250, 500 and 1000 µg/mL. All the reaction mixtures were incubated at 37 °C for 15 min. The enzymatic reactions were started by adding 100 μL substrate (p-nitro-phenyl-α-D-glucopyranoside) solution (5 mM) formed in phosphate buffer (0.1 M; pH 6.9), finally incubated at 37 °C for 15 min. The reaction was completed by adding sodium carbonate (400 μL; 0.2 M) solution and then at 405 nm absorbance was measured. The blank solution was prepared containing only isolated compounds without α-glucosidase. Percent α-glucosidase inhibition potential was calculated using Equation (3): (3) % α − glucosidase Inhibition =control absorbance−sample absorbance/control absorbance×100
All the in vitro and in vivo experiments were analyzed in three replicates and determined as mean ± SEM. Student’s t-test and one way ANOVA followed by Dunnett’s post hoc multiple comparison test was used. p ≤ 0.05 were considered as significant. Linear regression analysis was used to calculate the IC50 value for % DPPH, ABTS, α-amylase, and α-glucosidase inhibition against the different concentrations of the test samples by means of Excel program 2007.

[2] = DPPH free radical scavenging assay; format: biochemical; settings: 125 µg/mL
[3] = Acute toxicity study; format: in vivo, Sprague Dawley adult albino rats; settings: oral 50, 100, 150, 200, 250, 300, and 500 mg/kg body weight; observed 4 h, 24 h to 1 week
Description: Sprague Dawley adult albino rats (body weight range = 170–200 g) were used in in vivo studies. The animals were purchased from Rifah Institute of Pharmaceutical Sciences Islamabad. The entire animals were given food and fresh water ad libitum. The animals were adjusted at room temperature around 22–25 °C. The animals were housed three rats per cage and maintained with light/dark cycle of about 12 h. All the in vivo procedures were carried out according to the ARRIVE guidelines and approval was taken from the Departmental Animal Ethical Committee (DAEC/2019/1), University of Malakand.
For acute toxicity study all the animals were treated orally with different doses (50, 100, 150, 200, 250, 300, and 500 mg/kg body weight) of isolated compound morin. After that the animals were kept under observation for 4 h for signs of toxicity (respiratory aches, convulsions, motor activity, tremors, muscle spasm, sedation, diarrhea, loss of righting reflex, hypnosis, and salivation). All the animals appeared healthy for 24 h to 1 week with no noticeable changes in appearance or behavior, and no signs of mortality were noticed. […]

[4] = test system: STZ-induced diabetic rats; experiment: Ex vivo DPPH scavenging of pancreas tissue homogenates (intracellular ROS level); format: in vivo, Sprague Dawley adult albino rats; set-up: dose or concentration left out as unconfirmed
Description: The pancreas tissue (1 g) was isolated from Sprague Dawley rats, washed with cold saline solution and blotted dried. A weighed portion of the pancreas tissue was homogenized on ice and then centrifuged for 15 min at 3500 rpm at 4 °C. The supernatant was then taken and stored at −20 °C until assessed for different enzymes.
Cellular oxidative stress due to the overproduction of reactive oxygen species (ROS) generated by streptozotocin was measured in pancreas tissues through DPPH free radical scavenging assays. Briefly, 50 µL (0.3 mM) DPPH in methanol was incubated with 100 µL supernatant of the tissue homogenates of each experimental group and […] in the dark for 30 min at room temperature. Ascorbic acid was used as the standard. The absorbance was then read against a blank at 517 nm. The percentage scavenging was calculated according to the equation No 1.

[5] = test system: STZ-induced diabetic rats; experiment: Pancreas histopathological assessment (H & E); format: in vivo, Sprague Dawley adult albino rats
Source text: For histopathological assessment, the pancreas tissues were removed immediately and washed with cold saline solution to remove the blood. Finally, the pancreas portions were fixed in 10% formalin, dehydrated with mixture of ethanol/xylene and then fixed with paraffin. Staining of tissue slides was done with hematoxylin and eosin (H & E) dye through automatic slide stainer (Sakura Tissue-Tek® DRS™ 2000; Tokyo, Japan). According to the reported assay, the stained slides were observed under microscope to see any variation in pancreatic tissue architecture of STZ-induced diabetic group and treated (glibenclamide/morin) groups.

Sequence of Type-I α-glucosidase (Baker Yeast) (P53341 whole entry): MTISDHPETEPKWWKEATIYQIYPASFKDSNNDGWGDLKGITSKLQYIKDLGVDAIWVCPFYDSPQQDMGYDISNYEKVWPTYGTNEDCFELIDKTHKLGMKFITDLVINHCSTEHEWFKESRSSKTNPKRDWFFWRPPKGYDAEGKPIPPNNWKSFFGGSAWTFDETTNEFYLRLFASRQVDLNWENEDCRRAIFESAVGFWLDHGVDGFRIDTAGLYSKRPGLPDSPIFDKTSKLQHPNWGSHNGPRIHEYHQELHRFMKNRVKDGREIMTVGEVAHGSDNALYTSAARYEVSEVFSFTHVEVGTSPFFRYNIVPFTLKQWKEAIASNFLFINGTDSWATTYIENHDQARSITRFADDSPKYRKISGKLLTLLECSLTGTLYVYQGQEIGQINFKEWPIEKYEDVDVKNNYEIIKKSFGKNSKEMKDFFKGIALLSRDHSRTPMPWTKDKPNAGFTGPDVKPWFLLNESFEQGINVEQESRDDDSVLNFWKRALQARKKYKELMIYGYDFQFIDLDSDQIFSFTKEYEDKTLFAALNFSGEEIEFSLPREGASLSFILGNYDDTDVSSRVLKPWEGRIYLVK

| Structure (SMILES) | inhibition at 31.05 µg/mL [1] [%] | inhibition at 62.5 µg/mL [1] [%] | inhibition at 125 µg/mL [1] [%] | inhibition at 250 µg/mL [1] [%] | inhibition at 500 µg/mL [1] [%] | inhibition at 1000 µg/mL [1] [%] | % DPPH Scavenging Mean ± SEM [2] [%] | acute toxicity (signs of toxicity, mortality) [3] | % DPPH inhibition activity in the pancreas tissues ([4]; morin 2 treated group, diabetic control 22.41 ± 4.25) [%] | % DPPH inhibition activity in the pancreas tissues ([4]; morin 5 treated group) [%] | % DPPH inhibition activity in the pancreas tissues ([4]; morin 10 treated group) [%] | % DPPH inhibition activity in the pancreas tissues ([4]; morin 15 treated group) [%] | % DPPH inhibition activity in the pancreas tissues ([4]; morin 30 treated group) [%] | % DPPH inhibition activity in the pancreas tissues ([4]; morin 50 treated group) [%] | pancreas histopathology ([5]; morin 2, 5 mg/kg orally) | pancreas histopathology ([5]; morin 10, 15 mg/kg orally) | pancreas histopathology ([5]; morin 30, 50 mg/kg orally) |
| --- | --- | --- | --- | --- | --- | --- | --- | --- | --- | --- | --- | --- | --- | --- | --- | --- | --- |
| Oc1cc(O)cc(O)c1 [Phloroglucinol, Benzene-1,3,5-triol] | 27 ± 1 | 30 ± 1.4 | 37 ± 1.5 | 43 ± 0.4 | 48 ± 0.5 | 55 ± 2.1 | 40 ± 0.5 | – | – | – | – | – | – | – | – | – | – |
| CCCCCCc1ccccc1 [1-Hexyl benzene, 1-hexylbenzene] | 28 ± 1.2 | 32 ± 0.4 | 39 ± 1.1 | 45 ± 0.5 | 50 ± 1.2 | 58 ± 2.1 | 40 ± 1.1 | – | – | – | – | – | – | – | – | – | – |
| O=c1c(O)c(-c2ccc(O)cc2O)oc2cc(O)cc(O)c12 [Morin, 2-(2,4-Dihydroxyphenyl)-3,5,7-trihydroxychromen-4-one] | 42 ± 1.4 | 48 ± 0.3 | 52 ± 0.5 | 59 ± 1.4 | 66 ± 0.4 | 79 ± 1 | 68 ± 1.2 | safe and nontoxic up to 500 mg/kg body weight | 49.88 ± 3.21 | 52.66 ± 2.81 | 60.42 ± 2.12 | 65.33 ± 22.13 | 69.33 ± 3.12 | 71.42 ± 3.23 | did not show restoration of pancreatic tissue | significant dose dependent improvement in cellular architecture | normal histological pattern of pancreas |
